# Biological target: T1, His-hMAGL (recombinant polyhistidine tagged human MAGL protein) (Homo sapiens, UniProt Q99685)
# T1 construct: made in house; host or cells: E. coli BL21(DE3)
# T1 sequence (Q99685 1-303): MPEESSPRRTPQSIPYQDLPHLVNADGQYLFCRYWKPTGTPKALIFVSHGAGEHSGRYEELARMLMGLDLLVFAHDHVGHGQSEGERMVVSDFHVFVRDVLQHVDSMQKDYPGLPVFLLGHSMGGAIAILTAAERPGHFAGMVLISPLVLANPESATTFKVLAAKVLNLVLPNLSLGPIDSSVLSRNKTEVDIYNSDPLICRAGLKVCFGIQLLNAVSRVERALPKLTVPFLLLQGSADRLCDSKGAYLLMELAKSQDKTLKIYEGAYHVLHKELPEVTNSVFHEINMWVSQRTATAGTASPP
# Experiment: Measurement of MAGL inhibitory activity (arachidonic acid production from 2-arachidonylglycerol, RapidFire-mass spectrometry)
# Format: biochemical
# Details: MAGL inhibitory rate at 10 μM test compound; 60 min preincubation with His-hMAGL, 2-arachidonylglycerol substrate, 10 min reaction at room temperature
# Procedure, shortened: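 Recombinant His-tagged human MAGL converted 2-arachidonylglycerol to arachidonic acid. Reactions received acetonitrile with 3 μM arachidonic acid-d8 as internal standard, and product was quantified by RapidFire SPE (C4) with negative-mode SRM mass spectrometry. Percent inhibition was calculated against compound-free and enzyme-free controls.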
row,inhibition at 10 µM [%],Structure (SMILES)
1,99,"N#Cc1ccc(Cl)cc1OCC1CN(C(=O)c2cc3c(cc2F)OCC(=O)N3)C1 [Example 137, 4-chloro-2-((1-((7-fluoro-3-oxo-3,4-dihydro-2H-1,4-benzoxazin-6-yl)carbonyl)azetidin-3-yl)methoxy)benzonitrile]"
2,100,"N#Cc1ccc(OCC2CN(C(=O)c3cc4c(cc3F)OCC(=O)N4)C2)cc1Cl [Example 138, 2-chloro-4-((1-((7-fluoro-3-oxo-3,4-dihydro-2H-1,4-benzoxazin-6-yl)carbonyl)azetidin-3-yl)methoxy)benzonitrile]"
3,92,"O=C1COc2cc(F)c(C(=O)N3CC(COc4cccc5nccnc45)C3)cc2N1 [Example 139, 7-fluoro-6-((3-((quinoxalin-5-yloxy)methyl)azetidin-1-yl)carbonyl)-2H-1,4-benzoxazin-3(4H)-one]"
4,100,"O=C1COc2cc(F)c(C(=O)N3CC(COc4ccccc4)C3)cc2N1 [Example 140, 7-fluoro-6-((3-(phenoxymethyl)azetidin-1-yl)carbonyl)-2H-1,4-benzoxazin-3(4H)-one]"
5,102,"Cc1ccc(OCC2CN(C(=O)c3cc4c(cc3F)OCC(=O)N4)C2)c(C)n1 [Example 141, 6-((3-(((2,6-dimethylpyridin-3-yl)oxy)methyl)azetidin-1-yl)carbonyl)-7-fluoro-2H-1,4-benzoxazin-3(4H)-one]"
6,102,"Cc1cc(C)c(OCC2CN(C(=O)c3cc4c(cc3F)OCC(=O)N4)C2)cn1 [Example 142, 6-((3-(((4,6-dimethylpyridin-3-yl)oxy)methyl)azetidin-1-yl)carbonyl)-7-fluoro-2H-1,4-benzoxazin-3(4H)-one]"
7,100,"O=C1COc2cc(F)c(C(=O)N3CC(COc4ccc(OC(F)(F)F)cc4)C3)cc2N1 [Example 143, 7-fluoro-6-((3-((4-(trifluoromethoxy)phenoxy)methyl)azetidin-1-yl)carbonyl)-2H-1,4-benzoxazin-3(4H)-one]"
8,98,"O=C1COc2cnc(C(=O)N3CCC(COc4ccc(C(F)(F)F)cc4Cl)CC3)cc2N1 [Example 144, 7-((4-((2-chloro-4-(trifluoromethyl)phenoxy)methyl)piperidin-1-yl)carbonyl)-1H-pyrido[3,4-b][1,4]oxazin-2(3H)-one]"
9,88,"Cc1nc2c(cc1C(=O)N1CCC(COc3ccc(F)cc3Cl)CC1)NC(=O)CO2 [Example 145, 7-((4-((2-chloro-4-fluorophenoxy)methyl)piperidin-1-yl)carbonyl)-6-methyl-1H-pyrido[2,3-b][1,4]oxazin-2(3H)-one]"
10,97,"CC(C)(C)c1ccccc1OCC1CN(C(=O)c2ccc3c(c2)NC(=O)CO3)C1 [Example 146, 6-((3-((2-tert-butylphenoxy)methyl)azetidin-1-yl)carbonyl)-2H-1,4-benzoxazin-3(4H)-one]"
11,102,"O=C1COc2cc(F)c(C(=O)N3CC(COCc4ccc(Cl)cc4)C3)cc2N1 [Example 147, 6-((3-(((4-chlorobenzyl)oxy)methyl)azetidin-1-yl)carbonyl)-7-fluoro-2H-1,4-benzoxazin-3(4H)-one]"
12,102,"O=C1COc2cc(F)c(C(=O)N3CC(COCc4ccccc4Cl)C3)cc2N1 [Example 148, 6-((3-(((2-chlorobenzyl)oxy)methyl)azetidin-1-yl)carbonyl)-7-fluoro-2H-1,4-benzoxazin-3(4H)-one]"
13,85,"O=C1COc2cc(F)c(C(=O)N3CCC(COc4ccc(-c5ccccc5)cc4)CC3)cc2N1 [Example 149, 6-((4-((biphenyl-4-yloxy)methyl)piperidin-1-yl)carbonyl)-7-fluoro-2H-1,4-benzoxazin-3(4H)-one]"
14,100,"O=C1COc2cc(F)c(C(=O)N3CCC(COc4cccc(-c5ccccc5)c4)CC3)cc2N1 [Example 150, 6-((4-((biphenyl-3-yloxy)methyl)piperidin-1-yl)carbonyl)-7-fluoro-2H-1,4-benzoxazin-3(4H)-one]"
15,92,"Cc1nc2cc(OCC3CN(C(=O)c4cc5c(cc4F)OCC(=O)N5)C3)ccc2s1 [Example 151, 7-fluoro-6-((3-(((2-methyl-1,3-benzothiazol-5-yl)oxy)methyl)azetidin-1-yl)carbonyl)-2H-1,4-benzoxazin-3(4H)-one]"
16,101,"Cc1nc2ccc(OCC3CN(C(=O)c4cc5c(cc4F)OCC(=O)N5)C3)cc2s1 [Example 152, 7-fluoro-6-((3-(((2-methyl-1,3-benzothiazol-6-yl)oxy)methyl)azetidin-1-yl)carbonyl)-2H-1,4-benzoxazin-3(4H)-one]"
17,100,"Cc1nc2ccc(OCC3CN(C(=O)c4cc5c(cc4F)OCC(=O)N5)C3)cc2o1 [Example 153, 7-fluoro-6-((3-(((2-methyl-1,3-benzoxazol-6-yl)oxy)methyl)azetidin-1-yl)carbonyl)-2H-1,4-benzoxazin-3(4H)-one]"

row,inhibition at 10 µM [%],Structure (SMILES)
1,95,"O=C1COc2cc(F)c(C(=O)N3CC(COc4ccc5c(c4)CCC5)C3)cc2N1 [Example 154, 6-((3-((2,3-dihydro-1H-inden-5-yloxy)methyl)azetidin-1-yl)carbonyl)-7-fluoro-2H-1,4-benzoxazin-3(4H)-one]"
2,101,"O=C1COc2cc(F)c(C(=O)N3CC(COc4ccc5c(c4)CCO5)C3)cc2N1 [Example 155, 6-((3-((2,3-dihydro-1-benzofuran-5-yloxy)methyl)azetidin-1-yl)carbonyl)-7-fluoro-2H-1,4-benzoxazin-3(4H)-one]"
3,100,"O=C1COc2cc(F)c(C(=O)N3CC(COc4ccc5[nH]ncc5c4)C3)cc2N1 [Example 156, 7-fluoro-6-((3-((1H-indazol-5-yloxy)methyl)azetidin-1-yl)carbonyl)-2H-1,4-benzoxazin-3(4H)-one]"
4,100,"O=C1COc2cc(F)c(C(=O)N3CC(COc4ccc5cn[nH]c5c4)C3)cc2N1 [Example 157, 7-fluoro-6-((3-((1H-indazol-6-yloxy)methyl)azetidin-1-yl)carbonyl)-2H-1,4-benzoxazin-3(4H)-one]"
5,103,"O=C1COc2cc(F)c(C(=O)N3CC(COc4ccc(F)c(F)c4)C3)cc2N1 [Example 158, 6-((3-((3,4-difluorophenoxy)methyl)azetidin-1-yl)carbonyl)-7-fluoro-2H-1,4-benzoxazin-3(4H)-one]"
6,103,"CC(C)c1ccc(OCC2CN(C(=O)c3cc4c(cc3F)OCC(=O)N4)C2)cc1 [Example 159, 7-fluoro-6-((3-((4-isopropylphenoxy)methyl)azetidin-1-yl)carbonyl)-2H-1,4-benzoxazin-3(4H)-one]"
7,100,"CC(C)c1ccccc1OCC1CN(C(=O)c2cc3c(cc2F)OCC(=O)N3)C1 [Example 160, 7-fluoro-6-((3-((2-isopropylphenoxy)methyl)azetidin-1-yl)carbonyl)-2H-1,4-benzoxazin-3(4H)-one]"
8,102,"Cc1ccc(OCC2CN(C(=O)c3cc4c(cc3F)OCC(=O)N4)C2)cc1 [Example 161, 7-fluoro-6-((3-((4-methylphenoxy)methyl)azetidin-1-yl)carbonyl)-2H-1,4-benzoxazin-3(4H)-one]"
9,102,"Cc1cccc(OCC2CN(C(=O)c3cc4c(cc3F)OCC(=O)N4)C2)c1 [Example 162, 7-fluoro-6-((3-((3-methylphenoxy)methyl)azetidin-1-yl)carbonyl)-2H-1,4-benzoxazin-3(4H)-one]"
10,100,"Cc1ccc(OCC2CN(C(=O)c3cc4c(cc3F)OCC(=O)N4)C2)cc1C [Example 163, 6-((3-((3,4-dimethylphenoxy)methyl)azetidin-1-yl)carbonyl)-7-fluoro-2H-1,4-benzoxazin-3(4H)-one]"
11,102,"Cc1ccc(OCC2CN(C(=O)c3cc4c(cc3F)OCC(=O)N4)C2)c(F)c1 [Example 164, 7-fluoro-6-((3-((2-fluoro-4-methylphenoxy)methyl)azetidin-1-yl)carbonyl)-2H-1,4-benzoxazin-3(4H)-one]"
12,103,"Cc1ccc(OCC2CN(C(=O)c3cc4c(cc3F)OCC(=O)N4)C2)c(C)c1 [Example 165, 6-((3-((2,4-dimethylphenoxy)methyl)azetidin-1-yl)carbonyl)-7-fluoro-2H-1,4-benzoxazin-3(4H)-one]"
13,98,"O=C1COc2cc(F)c(C(=O)N3CC(COc4ccccc4C4CCCC4)C3)cc2N1 [Example 166, 6-((3-((2-cyclopentylphenoxy)methyl)azetidin-1-yl)carbonyl)-7-fluoro-2H-1,4-benzoxazin-3(4H)-one]"
14,100,"CC(C)(C)c1ccccc1OCC1CN(C(=O)c2cc3c(cc2F)OCC(=O)N3)C1 [Example 167, 6-((3-((2-tert-butylphenoxy)methyl)azetidin-1-yl)carbonyl)-7-fluoro-2H-1,4-benzoxazin-3(4H)-one]"
15,101,"O=C1COc2cc(F)c(C(=O)N3CC(COc4ccccc4C4CC4)C3)cc2N1 [Example 168, 6-((3-((2-cyclopropylphenoxy)methyl)azetidin-1-yl)carbonyl)-7-fluoro-2H-1,4-benzoxazin-3(4H)-one]"
16,97,"O=C1COc2cc(F)c(C(=O)N3CC(COc4ccc5ccccc5c4)C3)cc2N1 [Example 169, 7-fluoro-6-((3-((2-naphthyloxy)methyl)azetidin-1-yl)carbonyl)-2H-1,4-benzoxazin-3(4H)-one]"
17,104,"O=C1COc2cc(F)c(C(=O)N3CC(COc4ccc5ncccc5c4)C3)cc2N1 [Example 170, 7-fluoro-6-((3-((quinolin-6-yloxy)methyl)azetidin-1-yl)carbonyl)-2H-1,4-benzoxazin-3(4H)-one]"

# — patent publication US10106556B2, “Heterocyclic compound” (TAKEDA PHARMACEUTICAL COMPANY LIMITED, priority 2015, dated 2018)
